Measured values from patent US20190169218A1, “AMPHIPATHIC COMPOUND HAVING NOVEL PENTA-SACCHARIDE HYDROPHILIC GROUP AND USE THEREOF” (Industry-University Cooperation Foundation Hanyang …, priority 2016, published 2019).

Experiments:
[1] = hydrodynamic radius of micelles by dynamic light scattering (DLS); format: physicochemical; conditions: compound at 1.0 wt %
In short: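 Micelle hydrodynamic radius (Rh) was measured by dynamic light scattering with each amphiphile at 1.0 wt %.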

[2] = biological target: T1, human β2 adrenergic receptor (β2AR) (Homo sapiens, UniProt P07550); assay: bimane fluorescence spectrum of mBBr-β2AR solubilized in amphipathic compounds; conditions: 0.1 wt % compound
T1 construct: Flag; made in house
T1 sequence (P07550 whole entry): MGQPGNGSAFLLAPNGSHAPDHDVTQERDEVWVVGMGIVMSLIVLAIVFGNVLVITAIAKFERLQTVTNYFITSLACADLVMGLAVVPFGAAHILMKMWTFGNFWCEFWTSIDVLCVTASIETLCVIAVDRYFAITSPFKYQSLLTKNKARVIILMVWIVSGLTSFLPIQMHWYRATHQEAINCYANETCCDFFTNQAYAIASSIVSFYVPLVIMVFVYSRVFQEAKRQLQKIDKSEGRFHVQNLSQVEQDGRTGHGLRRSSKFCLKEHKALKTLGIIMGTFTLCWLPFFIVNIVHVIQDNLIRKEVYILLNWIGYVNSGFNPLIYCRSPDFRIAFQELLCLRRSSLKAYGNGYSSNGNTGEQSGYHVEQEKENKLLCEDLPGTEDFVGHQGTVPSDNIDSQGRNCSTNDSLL
Method: The structural stability of monobromobimane-labeled β2ARs (mBBr-β2ARs) solubilized in PSAs and PSEs was evaluated in the presence of a high-affinity agonist BI (BI-167107).
Specifically, monobromobimane (mBBr)-labeled β2ARs (mainly labeled on Cys265) was used to measure changes in a fluorescence spectrum induced by a local structural change near transmembrane helix 6 (TM6) (see Yao, X. et al., Nat. Chem. Biol. 2006, 2, 417-422.). 0.5 μL of BI (agonist)-bound mBBr-β2ARs dissolved at a concentration of […] in 0.1 wt % DDM was diluted with 500 μL of a buffer solution containing 0.1 wt % of each of the novel amphipathic compounds (PSA-C11, PSE-C11 and PSE-C13). After incubation of the protein samples for 30 minutes, the spectrum of mBBr was measured and compared with the spectrum of mBBr-labeled receptors dissolved in 0.1 wt % DDM. The 370 nm excitation wavelength was used for bimane fluorescence, and the emission spectra were measured at 430 to 510 nm using a Spex FluoroMax-3 spectrometer (Jobin Yvon Inc.) at 0.5 nm s^−1 in 1-nm units, and the photon counting mode was set to a 4-nm emission bandwidth pass. mBBr-labeled β2ARs dissolved in DDM were used as a positive control group. Data is representative of three independent experiments.
The structural change and structural stability of mBBr-β2ARs by PSAs/PSEs and DDM according the presence or absence of a full agonist (isoproterenol, ISO) or the combination of ISO and a G-protein were measured. It is well known that a full agonist (e.g., BI) and the binding of a Gs-protein are simultaneously required for full activation of receptors (see Rasmussen, S. G. F. et al., Nature 2011, 469, 175-180.).
Specifically, G protein coupling experiments were performed using the following method. 0.5 μL of non-ligand mBBr-labeled receptors at a concentration of 50 μM was diluted with 500 μL of a buffer solution containing a 0.1 wt % amphipathic compound at room temperature for 15 minutes. After dilution, a dilution containing the receptors at a final concentration of 50 nM was obtained. 2 μM isoproterenol (ISO) was added to the diluted solution, and the solution was incubated for an additional 15 minutes. 250 nM Gs-protein was additionally added to the solution, and then the protein samples included in the solution were incubated at room temperature for an additional 20 minutes. The 370 nm excitation wavelength was used for bimane fluorescence, and the emission spectra were measured at 430 to 510 nm using a Spex FluoroMax-3 spectrometer (Jobin Yvon Inc.) at 0.5 nm s^−1 in 1-nm units, and the photon counting mode was set to a 4-nm emission bandwidth pass. The same experiment was repeated using 0.1 wt % DDM, which was used as a positive control. Data is representative of three independent experiments.

[3] = in the presence of agonist BI (BI-167107)
[4] = in the presence of full agonist isoproterenol (ISO)

| SMILES | Rh (nm), hydrodynamic radius of micelles [1] | bimane fluorescence spectrum of mBBr-β2AR [2, 3] | bimane fluorescence spectrum of mBBr-β2AR [2, 4] |
| --- | --- | --- | --- |
| CCCCCCCCCCCC(CCCCCCCCCCC)CO[C@@H]1OC(CO[C@@H]2OC(CO)[C@@H](O)C(O)C2O)[C@@H](O[C@@H]2OC(CO)[C@@H](O)C(O)C2O)C(O[C@@H]2OC(CO)[C@@H](O)C(O)C2O)C1O[C@@H]1OC(CO)[C@@H](O)C(O)C1O (stereo partly shown) [PSA-C11] | 3.28 ± 0.03 nm | very similar to that obtained from the receptors dissolved in DDM | spectra similar to the receptor solubilized by DDM |
| CCCCCCCCOCC(COCCCCCCCC)(COCCCCCCCC)CO[C@@H]1OC(CO[C@@H]2OC(CO)[C@@H](O)C(O)C2O)[C@@H](O[C@@H]2OC(CO)[C@@H](O)C(O)C2O)C(O[C@@H]2OC(CO)[C@@H](O)C(O)C2O)C1O[C@@H]1OC(CO)[C@@H](O)C(O)C1O (stereo partly shown) [TPS-E8] | 43.8 ± 16.3 nm |  |  |
| CCCCCCCCCCCCCOCC(COCCCCCCCCCCCCC)O[C@@H]1OC(CO[C@@H]2OC(CO)[C@@H](O)C(O)C2O)[C@@H](O[C@@H]2OC(CO)[C@@H](O)C(O)C2O)C(O[C@@H]2OC(CO)[C@@H](O)C(O)C2O)C1O[C@@H]1OC(CO)[C@@H](O)C(O)C1O (stereo partly shown) [PSE-C13] | 14.1 ± 0.24 nm | somewhat different bimane fluorescence spectrum compared to the receptors dissolved in DDM |  |
| CCCCCCCCCCCCO[C@@H]1O[C@H](CO)[C@@H](O[C@H]2O[C@H](CO)[C@@H](O)[C@H](O)[C@H]2O)[C@H](O)[C@H]1O [DDM, n-dodecyl-β-D-maltopyranoside, reference compound] | 3.4 ± 0.03 nm |  |  |
| CCCCCCCCCCCOCC(COCCCCCCCCCCC)O[C@@H]1OC(CO[C@@H]2OC(CO)[C@@H](O)C(O)C2O)[C@@H](O[C@@H]2OC(CO)[C@@H](O)C(O)C2O)C(O[C@@H]2OC(CO)[C@@H](O)C(O)C2O)C1O[C@@H]1OC(CO)[C@@H](O)C(O)C1O (stereo partly shown) [PSE-C11] | 3.46 ± 0.05 nm | very similar to that obtained from the receptors dissolved in DDM | spectra similar to the receptor solubilized by DDM |
